One compound from publication PMC6825211 (Nature Communications, 2019) can be followed below.

One experiment concerns the target T1, AXL (Homo sapiens, UniProt P30530).
T1 construct: Nanosyn (assay service)
Description: Nanosyn kinase profiling, mobility shift assay. It is filed as biochemical. To be noted: 12 points dose response. As for the experimental part: (§1) inhibition was determined for each assay.

For a further experiment, the target named is T2, CHEK2 (Homo sapiens, UniProt O96017).
T2 construct: Nanosyn (assay service)
T2 sequence (O96017 whole entry, species assumed): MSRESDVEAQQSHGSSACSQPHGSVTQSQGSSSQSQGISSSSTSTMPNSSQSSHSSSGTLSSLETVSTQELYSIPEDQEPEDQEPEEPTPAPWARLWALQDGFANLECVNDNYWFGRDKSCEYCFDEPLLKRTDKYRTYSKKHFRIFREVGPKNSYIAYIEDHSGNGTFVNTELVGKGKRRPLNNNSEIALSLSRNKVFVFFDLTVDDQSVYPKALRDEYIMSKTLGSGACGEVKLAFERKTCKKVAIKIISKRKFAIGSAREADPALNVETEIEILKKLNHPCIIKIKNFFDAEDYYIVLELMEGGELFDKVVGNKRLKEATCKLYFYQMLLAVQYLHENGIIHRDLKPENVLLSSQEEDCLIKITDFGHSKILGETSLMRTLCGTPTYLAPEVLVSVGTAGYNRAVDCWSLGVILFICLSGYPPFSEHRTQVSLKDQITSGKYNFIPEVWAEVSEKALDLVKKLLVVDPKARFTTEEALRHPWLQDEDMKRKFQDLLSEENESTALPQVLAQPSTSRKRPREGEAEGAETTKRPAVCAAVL
Description: Nanosyn kinase profiling, mobility shift assay. To be noted: 12 points dose response. It counts as biochemical. As for the experimental part:
as §1

In another experiment the target is T3, HIPK1 (Homo sapiens, UniProt Q86Z02).
T3 construct: Nanosyn (assay service)
T3 sequence (Q86Z02 whole entry, species assumed): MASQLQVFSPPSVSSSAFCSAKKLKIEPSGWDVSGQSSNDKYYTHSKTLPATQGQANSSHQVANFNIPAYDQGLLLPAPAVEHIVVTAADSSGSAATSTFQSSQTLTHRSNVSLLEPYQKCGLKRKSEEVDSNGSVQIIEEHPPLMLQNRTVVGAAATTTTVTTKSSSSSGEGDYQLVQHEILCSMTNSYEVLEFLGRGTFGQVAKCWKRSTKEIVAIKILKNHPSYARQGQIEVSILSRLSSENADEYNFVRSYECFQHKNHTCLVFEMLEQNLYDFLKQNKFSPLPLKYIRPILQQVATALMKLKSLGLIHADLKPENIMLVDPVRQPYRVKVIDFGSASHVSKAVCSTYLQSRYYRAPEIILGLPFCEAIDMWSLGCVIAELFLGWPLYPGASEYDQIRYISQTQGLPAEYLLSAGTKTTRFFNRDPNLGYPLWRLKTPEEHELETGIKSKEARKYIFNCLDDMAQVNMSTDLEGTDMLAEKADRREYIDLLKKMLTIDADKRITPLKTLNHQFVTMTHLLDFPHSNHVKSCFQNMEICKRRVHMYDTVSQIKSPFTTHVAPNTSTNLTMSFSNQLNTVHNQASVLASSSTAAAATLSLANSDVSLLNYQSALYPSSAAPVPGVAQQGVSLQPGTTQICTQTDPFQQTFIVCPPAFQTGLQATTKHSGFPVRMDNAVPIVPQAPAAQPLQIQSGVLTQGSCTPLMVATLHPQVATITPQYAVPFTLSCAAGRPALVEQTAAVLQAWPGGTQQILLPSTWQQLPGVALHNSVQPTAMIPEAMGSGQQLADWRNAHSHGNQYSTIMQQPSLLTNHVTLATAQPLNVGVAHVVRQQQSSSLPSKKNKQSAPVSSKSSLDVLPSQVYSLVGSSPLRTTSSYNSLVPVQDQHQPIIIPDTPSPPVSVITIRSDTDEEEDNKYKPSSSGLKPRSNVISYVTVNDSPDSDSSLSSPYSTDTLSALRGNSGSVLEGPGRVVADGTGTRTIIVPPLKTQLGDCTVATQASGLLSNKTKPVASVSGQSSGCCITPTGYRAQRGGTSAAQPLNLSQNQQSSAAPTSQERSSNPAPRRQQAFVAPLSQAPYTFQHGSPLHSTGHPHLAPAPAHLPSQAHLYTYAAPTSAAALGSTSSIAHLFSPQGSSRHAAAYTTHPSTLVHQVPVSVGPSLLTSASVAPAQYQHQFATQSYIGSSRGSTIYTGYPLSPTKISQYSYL
In words: Nanosyn kinase profiling, mobility shift assay. It counts as biochemical. To be noted: 12 points dose response. As for the experimental part:
as §1

For the next experiment, the target named is MAP4K2 (Homo sapiens, UniProt Q12851). Description: Nanosyn kinase profiling, mobility shift assay. It is filed as biochemical. To be noted: 12 points dose response. As for the experimental part:
as §1

In the next experiment the target is T4, MST3 (Homo sapiens, UniProt Q9Y6E0).
T4 construct: Nanosyn (assay service)
Description: Nanosyn kinase profiling, mobility shift assay. It is filed as biochemical. To be noted: 12 points dose response. As for the experimental part:
as §1

A further experiment addresses PAK3 (Homo sapiens, UniProt O75914). In words: Nanosyn kinase profiling, mobility shift assay. It counts as biochemical. To be noted: 12 points dose response. As for the experimental part:
as §1

In the next experiment the target is T5, PAK5 (Homo sapiens, UniProt Q9P286).
T5 construct: Nanosyn (assay service)
T5 sequence (Q9P286 whole entry): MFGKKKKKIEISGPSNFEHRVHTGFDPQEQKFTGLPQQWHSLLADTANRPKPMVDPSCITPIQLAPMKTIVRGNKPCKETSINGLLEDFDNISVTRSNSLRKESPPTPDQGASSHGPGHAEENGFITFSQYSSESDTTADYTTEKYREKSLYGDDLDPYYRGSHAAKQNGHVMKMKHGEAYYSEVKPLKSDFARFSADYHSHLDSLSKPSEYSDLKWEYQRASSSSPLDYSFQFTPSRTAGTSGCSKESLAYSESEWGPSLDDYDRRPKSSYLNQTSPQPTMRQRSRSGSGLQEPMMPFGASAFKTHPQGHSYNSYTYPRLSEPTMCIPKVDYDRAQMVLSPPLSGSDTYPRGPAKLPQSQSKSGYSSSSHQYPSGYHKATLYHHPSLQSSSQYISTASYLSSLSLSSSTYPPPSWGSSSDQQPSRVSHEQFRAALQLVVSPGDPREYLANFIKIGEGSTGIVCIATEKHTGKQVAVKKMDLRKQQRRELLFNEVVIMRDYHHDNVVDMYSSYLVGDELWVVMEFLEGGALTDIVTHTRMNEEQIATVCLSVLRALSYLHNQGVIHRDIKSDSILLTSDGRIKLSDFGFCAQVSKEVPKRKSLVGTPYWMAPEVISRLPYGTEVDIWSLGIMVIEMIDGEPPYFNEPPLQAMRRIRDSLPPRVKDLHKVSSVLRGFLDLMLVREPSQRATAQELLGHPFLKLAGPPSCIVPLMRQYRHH
In words: Nanosyn kinase profiling, mobility shift assay. It counts as biochemical. To be noted: 12 points dose response. As for the experimental part:
as §1

A further experiment concerns the target T6, PAK6 (Homo sapiens, UniProt Q9NQU5).
T6 construct: Nanosyn (assay service)
In words: Nanosyn kinase profiling, mobility shift assay. It is filed as biochemical. To be noted: 12 points dose response. As for the experimental part:
as §1

The target of a further experiment is T7, PHK1 (Homo sapiens, UniProt Q16816).
T7 construct: Nanosyn (assay service)
T7 sequence (Q16816 whole entry): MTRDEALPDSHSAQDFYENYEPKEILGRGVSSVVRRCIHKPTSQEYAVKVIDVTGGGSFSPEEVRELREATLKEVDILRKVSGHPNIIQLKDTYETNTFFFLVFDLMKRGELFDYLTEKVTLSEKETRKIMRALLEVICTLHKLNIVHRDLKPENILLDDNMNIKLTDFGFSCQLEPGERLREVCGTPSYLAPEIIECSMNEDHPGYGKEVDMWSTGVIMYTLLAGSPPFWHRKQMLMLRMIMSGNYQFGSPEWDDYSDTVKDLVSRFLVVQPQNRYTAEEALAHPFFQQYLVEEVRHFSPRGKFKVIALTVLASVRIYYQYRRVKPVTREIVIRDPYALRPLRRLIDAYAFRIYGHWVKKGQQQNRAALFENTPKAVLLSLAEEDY
Description: Nanosyn kinase profiling, mobility shift assay. To be noted: 12 points dose response. It counts as biochemical. As for the experimental part: as §1

The test system of experiment [1] is obese diabetic Lepr db/db mice. In words: db/db model: random fed blood glucose. To be noted: for glycemia: dbdb mice. It counts as in vivo, mouse. From the text: Data are representative of six mice per group (n = 6 for (a–f)). g–j Mice were killed at day 31. g β-cell mass (given as percentage of the whole pancreatic section from ten sections spanning the width of the pancreas; n = 5 mice/group) and quantitative analyses from triple stainings for (h) TUNEL, (i) Ki67, (j) pHH3, and (k) nuclear PDX1 expression, insulin, and DAPI expressed as percentage of TUNEL-, Ki67-, pHH3-, or nuclear PDX1-positive β-cells ± SEM. An average number of 13667 (h), 5937 (i), 7108 (j), or 4330 (k) β-cells were counted from n = 3–5 (h, i, k) or n = 5–6 (j) mice/group.

For another experiment, the target named is AURORA-A (Homo sapiens, UniProt O14965). In words: Nanosyn kinase profiling, mobility shift assay. To be noted: read-out: % inhibition by neratinib.
AURORA-A, sequence (O14965 whole entry): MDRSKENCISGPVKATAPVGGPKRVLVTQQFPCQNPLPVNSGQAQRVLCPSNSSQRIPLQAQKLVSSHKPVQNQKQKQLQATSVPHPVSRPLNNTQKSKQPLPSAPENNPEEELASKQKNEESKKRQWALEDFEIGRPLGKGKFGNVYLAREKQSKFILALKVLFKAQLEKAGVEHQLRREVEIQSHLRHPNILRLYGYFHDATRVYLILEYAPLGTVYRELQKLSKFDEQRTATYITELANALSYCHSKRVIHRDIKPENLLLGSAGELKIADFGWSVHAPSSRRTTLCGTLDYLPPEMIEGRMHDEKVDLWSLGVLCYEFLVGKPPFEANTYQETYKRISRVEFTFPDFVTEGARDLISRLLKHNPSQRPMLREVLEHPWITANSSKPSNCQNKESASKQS
The next experiment deals with CDK1 (Homo sapiens, UniProt P06493). In words: Nanosyn kinase profiling, mobility shift assay. To be noted: read-out: % inhibition by neratinib.
Another experiment deals with EPH-A2 (Homo sapiens, UniProt P29317). In words: Nanosyn kinase profiling, mobility shift assay. To be noted: read-out: % inhibition by neratinib.

“And” between values parts separate entries of the source, which are not always exact repeats. Identical values can stand only once. A value given as a limit tells only on which side of the number the result lay.

T6 sequence (Q9NQU5 whole entry, species assumed): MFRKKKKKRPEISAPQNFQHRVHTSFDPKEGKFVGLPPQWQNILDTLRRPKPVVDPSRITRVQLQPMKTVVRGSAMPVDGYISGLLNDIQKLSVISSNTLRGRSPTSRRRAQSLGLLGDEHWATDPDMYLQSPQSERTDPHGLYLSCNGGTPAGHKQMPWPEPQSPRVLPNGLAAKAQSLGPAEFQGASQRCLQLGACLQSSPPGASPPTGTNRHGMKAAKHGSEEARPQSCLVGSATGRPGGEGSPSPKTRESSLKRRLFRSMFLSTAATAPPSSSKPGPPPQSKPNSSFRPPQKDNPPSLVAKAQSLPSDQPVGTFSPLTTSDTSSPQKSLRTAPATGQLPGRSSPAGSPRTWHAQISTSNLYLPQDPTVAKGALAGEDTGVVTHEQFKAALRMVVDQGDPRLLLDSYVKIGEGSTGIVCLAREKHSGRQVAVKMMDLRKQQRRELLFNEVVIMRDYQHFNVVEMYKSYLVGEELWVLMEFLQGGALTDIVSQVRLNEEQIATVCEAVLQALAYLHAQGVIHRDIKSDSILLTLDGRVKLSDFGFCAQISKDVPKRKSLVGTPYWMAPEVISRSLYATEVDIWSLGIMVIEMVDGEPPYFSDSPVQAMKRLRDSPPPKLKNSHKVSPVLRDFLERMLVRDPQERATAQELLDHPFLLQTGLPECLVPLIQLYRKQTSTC
T1 sequence (P30530 26-894, species assumed): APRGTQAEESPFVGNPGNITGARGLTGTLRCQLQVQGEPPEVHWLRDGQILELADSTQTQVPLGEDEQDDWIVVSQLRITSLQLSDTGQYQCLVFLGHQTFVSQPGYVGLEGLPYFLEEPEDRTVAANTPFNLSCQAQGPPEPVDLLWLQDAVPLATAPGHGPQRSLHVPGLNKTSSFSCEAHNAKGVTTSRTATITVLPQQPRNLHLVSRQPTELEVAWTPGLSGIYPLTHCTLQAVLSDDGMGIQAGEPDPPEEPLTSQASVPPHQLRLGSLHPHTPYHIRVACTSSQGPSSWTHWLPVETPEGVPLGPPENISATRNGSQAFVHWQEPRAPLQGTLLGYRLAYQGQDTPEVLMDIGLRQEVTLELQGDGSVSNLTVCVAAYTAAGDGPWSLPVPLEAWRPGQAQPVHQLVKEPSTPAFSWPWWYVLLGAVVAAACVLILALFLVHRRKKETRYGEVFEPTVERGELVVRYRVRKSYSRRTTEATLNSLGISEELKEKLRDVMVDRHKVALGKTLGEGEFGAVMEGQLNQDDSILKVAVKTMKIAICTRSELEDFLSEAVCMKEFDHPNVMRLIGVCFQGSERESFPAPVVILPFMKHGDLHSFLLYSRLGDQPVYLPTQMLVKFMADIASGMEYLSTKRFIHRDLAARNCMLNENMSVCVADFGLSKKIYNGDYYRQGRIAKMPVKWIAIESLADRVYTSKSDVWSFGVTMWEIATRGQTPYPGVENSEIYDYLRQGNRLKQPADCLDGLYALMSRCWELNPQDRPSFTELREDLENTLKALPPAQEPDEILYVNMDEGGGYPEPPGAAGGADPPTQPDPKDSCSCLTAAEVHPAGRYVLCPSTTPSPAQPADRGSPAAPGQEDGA

Consider `CCOc1cc2ncc(C#N)c(Nc3ccc(OCc4ccccn4)c(Cl)c3)c2cc1NC(=O)/C=C/CN(C)C` [neratinib], for which the half-maximal inhibitory concentration (IC50) (usually the concentration at which inhibition is half-maximal) at AXL is 185 nM; on CHEK2, 937 nM; at HIPK1, > 20000 nM; at MAP4K2, 102 nM; at MST3, 5 nM; on PAK3 it was 1500 nM. Moreover, the IC50 on PAK5 was > 20000 nM; on PAK6, > 20000 nM; at PHK1 it was 5850 nM. Moreover, in experiment [1] (db/db neratinib group, no significant increase), the “blood glucose, start to after 30 days of therapy” value lay within 312 to 384 mg/dL. For the same compound, the “blood glucose levels after 4 weeks” value in experiment [1] (db/db, 5 mg/kg i.p. daily) is “did not significantly increase”. Besides, the glycemia in experiment [1] (0 days after NERA injection, MEAN) was 311.667 mg/dL; in experiment [1] (0 days after NERA injection, individual mice), 219 mg/dL and 243 mg/dL and 260 mg/dL and 443 mg/dL and 266 mg/dL and 439 mg/dL; in experiment [1] (31 days after NERA injection, individual mice) it was 405 mg/dL and 313 mg/dL and 425 mg/dL and 317 mg/dL and 380 mg/dL and 462 mg/dL. Further, the values for the inhibition at 10 µM on AURORA-A, at CDK1 and on EPH-A2 were 28%, 14% and 51%, respectively.
